What was measured:
OVCAR-3 = test: NCI sixty human tumor cell line screen, Ovarian panel; format: cell-based; settings: OVCAR-3, Ovarian, NCI protocol
Protocol: (§1) The in vitro anticancer activity studies for these N-((1-benzyl-1H-1,2,3-triazol-4-yl)methyl) arylamide analogues were carried out at the National Cancer Institute, USA.
(§2) The N-((1-benzyl-1H-1,2,3-triazol-4-yl)methyl)arylamide analogues have been tested at NCI, USA, against sixty human tumor cell lines derived from nine cancer types (leukemia, non-small cell lung cancer, colon cancer, CNS cancer, melanoma cancer, ovarian cancer, renal cancer, prostate cancer and breast cancer). For these compounds results are expressed as growth inhibition (GI50) values as per NCI protocol.

OVCAR-8 = test: as above; format: cell-based; settings: OVCAR-8, Ovarian, NCI protocol
Protocol: as §1, §2

SK-OV-3 = test: as above; format: cell-based; settings: SK-OV-3, Ovarian, NCI protocol
Protocol: as §1, §2

NCI/ADR-RES = test: as above; format: cell-based; settings: NCI protocol
Protocol: as §1, §2

OVCAR-4 = test: as above; format: cell-based; settings: OVCAR-4, Ovarian, NCI protocol
Protocol: as §1, §2

UACC-62 = test: NCI sixty human tumor cell line screen, Melanoma panel; format: cell-based; settings: UACC-62, Melanoma, NCI protocol
Protocol: as §1, §2

M14 = test: as above; format: cell-based; settings: NCI protocol
Protocol: as §1, §2

MDA-MB-435 = test: as above; format: cell-based; settings: MDA-MB-435, Melanoma, NCI protocol
Protocol: as §1, §2

SK-MEL-28 = test: as above; format: cell-based; settings: SK-MEL-28, Melanoma, NCI protocol
Protocol: as §1, §2

LOX IMVI = test: as above; format: cell-based; settings: NCI protocol
Protocol: as §1, §2

SK-MEL-2 = test: as above; format: cell-based; settings: SK-MEL-2, Melanoma, NCI protocol
Protocol: as §1, §2

SK-MEL-5 = test: as above; format: cell-based; settings: SK-MEL-5, Melanoma, NCI protocol
Protocol: as §1, §2

MDA-MB-468 = test: NCI sixty human tumor cell line screen, Breast panel; format: cell-based; settings: MDA-MB-468, Breast, NCI protocol
Protocol: as §1, §2

MDA-MB-31/ATCC = test: as above; format: cell-based; settings: NCI protocol
Protocol: as §1, §2

T-47D = test: as above; format: cell-based; settings: T47D, NCI protocol
Protocol: as §1, §2

BT-549 = test: as above; format: cell-based; settings: BT-549, Breast, NCI protocol
Protocol: as §1, §2

U251 = test: NCI sixty human tumor cell line screen, CNS panel; format: cell-based; settings: U-251, NCI protocol
Protocol: as §1, §2

SNB-19 = test: NCI sixty human tumor cell line screen, CNS panel; format: cell-based; settings: SNB-19, CNS, NCI protocol
Protocol: as §1, §2

SF-295 = test: NCI sixty human tumor cell line screen, CNS panel; format: cell-based; settings: SF-295, CNS, NCI protocol
Protocol: as §1, §2

SF-539 = test: NCI sixty human tumor cell line screen, CNS panel; format: cell-based; settings: SF-539, CNS, NCI protocol
Protocol: as §1, §2

SNB-75 = test: NCI sixty human tumor cell line screen, CNS panel; format: cell-based; settings: SNB-75, CNS, NCI protocol
Protocol: as §1, §2

SF-268 = test: NCI sixty human tumor cell line screen, CNS panel; format: cell-based; settings: SF-268, CNS, NCI protocol
Protocol: as §1, §2

SW-620 = test: NCI sixty human tumor cell line screen, Colon panel; format: cell-based; settings: SW-620, Colon, NCI protocol
Protocol: as §1, §2

HT29 = test: as above; format: cell-based; settings: HT-29, NCI protocol
Protocol: as §1, §2

COLO 205 = test: as above; format: cell-based; settings: COLO 205, Colon, NCI protocol
Protocol: as §1, §2

HCT-116 = test: as above; format: cell-based; settings: HCT-116, Colon, NCI protocol
Protocol: as §1, §2

KM12 = test: as above; format: cell-based; settings: NCI protocol
Protocol: as §1, §2

PC-3 = test: NCI sixty human tumor cell line screen, Prostate panel; format: cell-based; settings: PC-3, Prostate, NCI protocol
Protocol: as §1, §2

DU-145 = test: as above; format: cell-based; settings: DU-145, Prostate, NCI protocol
Protocol: as §1, §2

UO-31 = test: NCI sixty human tumor cell line screen, Renal panel; format: cell-based; settings: UO-31, Renal, NCI protocol
Protocol: as §1, §2

SN12C = test: as above; format: cell-based; settings: NCI protocol
Protocol: as §1, §2

TK-10 = test: as above; format: cell-based; settings: TK-10, Renal, NCI protocol
Protocol: as §1, §2

CAKI-1 = test: as above; format: cell-based; settings: CAKI-1, Renal, NCI protocol
Protocol: as §1, §2

ACHN = test: as above; format: cell-based; settings: NCI protocol
Protocol: as §1, §2

RXF 393 = test: as above; format: cell-based; settings: RXF 393, Renal, NCI protocol
Protocol: as §1, §2

A498 = test: as above; format: cell-based; settings: NCI protocol
Protocol: as §1, §2

NCI-H522 = test: NCI sixty human tumor cell line screen, Non-small-cell-lung panel; format: cell-based; settings: NCI protocol
Protocol: as §1, §2

EKVX = test: as above; format: cell-based; settings: NCI protocol
Protocol: as §1, §2

NCI-H460 = test: as above; format: cell-based; settings: NCI protocol
Protocol: as §1, §2

HOP-62 = test: as above; format: cell-based; settings: HOP-62, Non-small-cell-lung, NCI protocol
Protocol: as §1, §2

NCI-H226 = test: as above; format: cell-based; settings: NCI protocol
Protocol: as §1, §2

A549/ATCC = test: as above; format: cell-based; settings: NCI protocol
Protocol: as §1, §2

In the case of `O=C(NCc1cn(Cc2cccc(Oc3ccccc3)c2)nn1)c1cccnc1Nc1ccccc1` [Compound 1a, N-((1-(3-Phenoxybenzyl)-1H-1,2,3-triazol-4-yl)methyl)-2-(phenylamino)nicotinamide], the GI50 (OVCAR-3) is reported as 17.7 µM, the GI50 (OVCAR-8) is reported as 7.44 µM and the GI50 (SK-OV-3) is reported as 5.94 µM. The GI50 (NCI/ADR-RES) was 14 µM, the GI50 (OVCAR-4) was 23.4 µM and the GI50 (UACC-62) was 3.02 µM. For the same molecule, the GI50 (M14) was 2.86 µM, the GI50 (MDA-MB-435) was 2.65 µM and the GI50 (SK-MEL-28) was 4.93 µM. It also gave a GI50 (LOX IMVI) of 4.54 µM, a GI50 (SK-MEL-2) of 6.05 µM and a GI50 (SK-MEL-5) of 3.89 µM. It also gave a GI50 (MDA-MB-468) of 51.7 µM, a GI50 (MDA-MB-31/ATCC) of 14.5 µM and a GI50 (T-47D) of 21.4 µM. For the same molecule, the GI50 (BT-549) was 45.5 µM, the GI50 (U251) was 3.61 µM and the GI50 (SNB-19) was 3.27 µM. It also gave a GI50 (SF-295) of 3.69 µM, a GI50 (SF-539) of 3.1 µM and a GI50 (SNB-75) of 1.94 µM. The GI50 (SF-268) was 3.22 µM, the GI50 (SW-620) was 3.97 µM and the GI50 (HT29) was 3.65 µM. The GI50 (COLO 205) was 2.79 µM, the GI50 (HCT-116) was 3.4 µM and the GI50 (KM12) was 3.63 µM. The GI50 (PC-3) was 20.4 µM, the GI50 (DU-145) was 8.58 µM and the GI50 (UO-31) was 86.3 µM. For the same molecule, the GI50 (SN12C) was 52.9 µM, the GI50 (TK-10) was 24.5 µM and the GI50 (CAKI-1) was 64.2 µM. The GI50 (ACHN) was 11.1 µM, the GI50 (RXF 393) was 5.69 µM and the GI50 (A498) was 13.7 µM. The GI50 (NCI-H522) was 2.11 µM, the GI50 (EKVX) was 5.18 µM and the GI50 (NCI-H460) was 2.85 µM. It also gave a GI50 (HOP-62) of 5.58 µM, a GI50 (NCI-H226) of 3.24 µM and a GI50 (A549/ATCC) of 4.81 µM. For the same molecule, the melting point was 124 to 126 °C.
`O=C(NCc1cn(Cc2cccc(Oc3ccccc3)c2)nn1)c1cccnc1Nc1ccc(F)cc1` [Compound 1b, 2-(4-Fluorophenylamino)-N-((1-(3-phenoxybenzyl)-1H-1,2,3-triazol4-yl)methyl)nicotinamide] gave a GI50 (OVCAR-3) of 2.98 µM, a GI50 (OVCAR-8) of 3.72 µM and a GI50 (SK-OV-3) of 3.11 µM. The GI50 (NCI/ADR-RES) was 2.12 µM, the GI50 (OVCAR-4) was 5.19 µM and the GI50 (UACC-62) was 6.51 µM. For the same molecule, the GI50 (M14) was 13.7 µM, the GI50 (MDA-MB-435) was 2.79 µM and the GI50 (SK-MEL-28) was 7.98 µM. It also gave a GI50 (LOX IMVI) of 61.3 µM, a GI50 (SK-MEL-2) of 34.2 µM and a GI50 (SK-MEL-5) of 4.48 µM. It also gave a GI50 (MDA-MB-468) of 2.32 µM, a GI50 (MDA-MB-31/ATCC) of 3.09 µM and a GI50 (T-47D) of 4.03 µM. For the same molecule, the GI50 (BT-549) was 4.58 µM, the GI50 (U251) was 7.12 µM and the GI50 (SNB-19) was 20.7 µM. For the same molecule, the GI50 (SF-295) was 5.66 µM, the GI50 (SF-539) was 15.1 µM and the GI50 (SNB-75) was 3.81 µM. The GI50 (SF-268) was 2.1 µM, the GI50 (SW-620) was 6.58 µM and the GI50 (HT29) was 5.6 µM. It also gave a GI50 (COLO 205) of 6.22 µM, a GI50 (HCT-116) of 5.02 µM and a GI50 (KM12) of 5.61 µM. For the same molecule, the GI50 (PC-3) was 3.86 µM, the GI50 (DU-145) was 3.76 µM and the GI50 (UO-31) was 3 µM. It also gave a GI50 (SN12C) of 4.75 µM, a GI50 (TK-10) of 4.59 µM and a GI50 (CAKI-1) of 3.41 µM. It also gave a GI50 (ACHN) of 4.79 µM, a GI50 (RXF 393) of 2.59 µM and a GI50 (A498) of 2.35 µM. It also gave a GI50 (NCI-H522) of 10.8 µM, a GI50 (EKVX) of 25.3 µM and a GI50 (NCI-H460) of 5.25 µM. For the same molecule, the GI50 (HOP-62) was 60.2 µM, the GI50 (NCI-H226) was 38.6 µM and the GI50 (A549/ATCC) was 6.11 µM. It also gave a melting point of 160 to 162 °C.
